Laboratory results published in patent US12084462B2, “Spiro bicyclic inhibitors of menin-MLL interaction” (Janssen Pharmaceutica NV, priority 2016, dated 2024).
Several values for one entry are separate records, joined by “and”; a condition that tells them apart may be missing. Identical values can stand only once. Like-named read-outs stand apart in the source and are kept apart here.

Assays:
[1] = tested on: MOLM14; assay: Proliferation assay (spheroid assay) MOLM14; type: cell-based, human
Procedure: (§1) The anti-proliferative effect of menin/MLL protein/protein interaction inhibitor test compounds was assessed in human leukemia cell lines. The cell lines MV-4-11 and MOLM14 harbor MLL translocations and express the MLL fusion proteins MLL-AF4 and MLL-AF9, respectively, as well as the wildtype protein from the second allele. […] K562 and KG1 were used as a control cell lines containing two MLL wildtype alleles in order to exclude compounds that display general cytotoxic effects.
(§2) MV-4-11 and MOLM14 were cultured in RPMI-1640 (Sigma Aldrich) supplemented with 10% fetal bovine serum (HyClone), 2 mM L-glutamine (Sigma Aldrich) and 50 μg/ml gentamycin (Gibco). K562 were propagated in RPMI-1640 (Sigma Aldrich) supplemented with 20% fetal bovine serum (HyClone), 2 mM L-glutamine (Sigma Aldrich) and 50 μg/ml gentamycin (Gibco). KG1 were cultured in Iscove's MDM (Gibco) supplemented with 20% fetal bovine serum (HyClone), 2 mM L-glutamine (Sigma Aldrich) and 50 μg/ml gentamycin (Gibco).
(§3) In order to assess the anti-proliferative effects, 1,500 MV-4-11, 300 MOLM14, 750 K562 or 1,300 KG1 cells were seeded in 200 μl media per well in 96-well round bottom, ultra-low attachment plates (Costar, catalogue number 7007). Cell seeding numbers were chosen based on growth curves to ensure linear growth throughout the experiment. Test compounds were added at different concentrations and the DMSO content was normalized to 0.3%. Cells were incubated for 8 d at 37° C. and 5% CO2. Spheroid like growth was monitored in real-time by live-cell imaging (IncuCyteZOOM, Essenbio, 4× objective) acquiring one image every four hours for 8 d. Confluence (%) as a measure of spheroid size was determined using an integrated analysis tool.
(§4) In order to determine the cumulative effect of the test compounds over time, the area under the curve (AUC) in a plot of confluence against time was calculated. Confluence at the beginning of the experiment (t=0) was used as baseline for the AUC calculation.
(§5) Absolute IC50 values were calculated according to the following procedure: % Control=(AUC sample/AUC control)*100 AUC control=mean AUC of control values (cells without compound/DMSO as vehicle control)
(§6) A non-linear curve fit was applied using the least squares (ordinary) fit method to the plot of % control versus compound concentration. Based on this, the absolute IC50 value (half maximal inhibitory concentration of the test compound causing an anti-proliferative effect of 50% relative to the vehicle control) was calculated.

[2] = target: T1, menin (Homo sapiens, UniProt O00255, T541A); assay: Menin/MLL fluorescence polarization (FP) assay; type: binding
T1 sequence (O00255 with tags, fused parts or gaps T541A): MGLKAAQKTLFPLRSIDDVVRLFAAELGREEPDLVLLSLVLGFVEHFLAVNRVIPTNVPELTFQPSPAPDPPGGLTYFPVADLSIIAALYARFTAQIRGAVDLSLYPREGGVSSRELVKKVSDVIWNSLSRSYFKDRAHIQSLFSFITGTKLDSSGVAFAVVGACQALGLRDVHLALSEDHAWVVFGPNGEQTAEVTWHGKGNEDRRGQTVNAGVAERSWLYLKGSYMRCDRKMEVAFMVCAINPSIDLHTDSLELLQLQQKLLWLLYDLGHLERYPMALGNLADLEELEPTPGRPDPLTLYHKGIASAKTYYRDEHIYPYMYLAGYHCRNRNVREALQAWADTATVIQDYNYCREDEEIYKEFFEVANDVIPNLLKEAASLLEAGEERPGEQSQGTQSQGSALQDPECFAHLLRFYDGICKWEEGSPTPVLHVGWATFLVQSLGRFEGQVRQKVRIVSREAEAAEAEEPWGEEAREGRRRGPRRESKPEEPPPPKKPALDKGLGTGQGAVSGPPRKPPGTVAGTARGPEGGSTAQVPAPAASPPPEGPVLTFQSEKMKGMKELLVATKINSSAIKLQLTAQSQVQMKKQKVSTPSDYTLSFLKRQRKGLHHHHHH
Procedure: 1) Menin/MLL Fluorescence Polarization Assay
To a non-surface binding, black 384-well microtiter plate was added 50 nL 160× test compound in DMSO and 4 μL 2× menin in assay buffer (40 mM Tris·HCl, pH 7.5, 50 mM NaCl, 1 mM DTT and 0.001% Tween 20). After incubation of test compound and menin for 10 min at ambient temperature, 4 μL 2×FITC-MBM1 peptide (FITC-β-alanine-SARWRFPARPGT-NH2 (SEQ ID NO: 2)) in assay buffer was added, the microtiter plate centrifuged at 1000 rpm for 1 min and the assay mixtures incubated for 15 min at ambient temperature. The relative amount of menin·FITC-MBM1 complex present in an assay mixture is determined by measuring the fluorescence polarization (FP) of the FITC label with a BMG Pherastar plate reader (ex. 485 nm/em. 520 nm) at ambient temperature. The final concentrations of reagents in the binding assay are 100 nM menin, 5 nM FITC-MBM1 peptide and 0.625% DMSO in assay buffer. Dose-response titrations of test compounds are conducted using an 11 point, three-fold serial dilution scheme, starting at 31 μM.
Compound potencies were determined by first calculating % inhibition at each compound concentration according to equation 1: % inhibition=((HC−LC)−(FP^compound−LC))/(HC−LC))*100 (Eqn 1)
Where LC and HC are the FP values of the assay in the presence or absence of a saturating concentration of a compound that competes with FITC-MBM1 for binding to menin, and FP^compound is the measured FP value in the presence of the test compound. HC and LC FP values represent an average of at least 16 replicates per plate. […] 2) Proliferation Assay

[3] = tested on: K562; assay: Proliferation assay (spheroid assay) K562, control cell line; type: cell-based; settings: Homo sapiens; K562 control cell line; averaged values; read-out: Spheroid assay K562 (IC50 (μM))
Procedure: as §1, §2, §3, §4, §5, §6

[4] = tested on: MV-4-11; assay: Proliferation assay (spheroid assay) MV-4-11; type: cell-based, human
Procedure: as §1, §2, §3, §4, §5, §6

[5] = Homo sapiens, MOLM-14, MOLM14, averaged values, read-out: Spheroid assay MOLM14 (IC50 (μM))
[6] = averaged values over all measurements, read-out: Menin FP assay (IC50 (μM))
[7] = Homo sapiens, MV4-11, MV-4-11, averaged values, read-out: Spheroid assay MV-4-11 (IC50 (μM))
[8] = MOLM14 (MLL-AF9), 8 d, absolute IC50 from AUC of confluence, individual measurements (not averaged), read-out: (2) Spheroid assay MOLM14 (IC50 (μM))
[9] = 100 nM menin, 5 nM FITC-MBM1 peptide, individual measurements (not averaged), read-out: (1) Menin FP assay (IC50 (μM))

Compound	IC50 [1, 5] [µM]	IC50 [2, 6] [µM]	IC50 [4, 7] [µM]	further results
FC(F)(F)Cc1cc2c(N3CCCC4(CCN(Cc5ccccc5)C4)C3)ncnc2s1 (racemic) [Compound 18]	7.7	0.14	3.9	IC50 [3]: > 15 µM
FC(F)(F)Cc1cc2c(N3CC[C@@]4(CCN(Cc5ccccc5)C4)C3)ncnc2s1 (single isomer, unassigned) [Compound 20a]	5	0.076	0.96	IC50 [3]: > 15 µM
FC(F)(F)Cc1cc2c(N3CCC[C@]4(CCN(Cc5ccccc5)C4)C3)ncnc2s1 (single isomer, unassigned) [Compound 21a]	12.1	0.49	6.9	IC50 [3]: > 15 µM
FC(F)(F)Cc1cc2c(N3CCC[C@@]4(CCN(Cc5ccccc5)C4)C3)ncnc2s1 (single isomer, unassigned) [Compound 21b]	4.6	0.13	4.2	IC50 [3]: > 15 µM
FC(F)(F)Cc1cc2c(N3CCC4(CN(Cc5ccccc5)C4)C3)ncnc2s1 [Compound 1]	4.6	0.056	3.7	IC50 [3]: > 15 µM
FC(F)(F)Cc1cc2c(N3CCC4(CN(Cc5cncc(Cl)n5)C4)C3)ncnc2s1 [Compound 11]		0.76		
FC(F)(F)Cc1cc2c(N3CC4(CN(Cc5ccccc5)C4)C3)ncnc2s1 [Compound 14]	4.9	0.11	2.2	
Cc1nc(N2CCCC3(CCN(Cc4ccccc4)C3)C2)c2cc(CC(F)(F)F)sc2n1 (stereo not shown) [Compound 19]		0.81		
Cn1cncc1CN1CC2(CCN(c3ncnc4sc(CC(F)(F)F)cc34)C2)C1 [Compound 23]		0.95		
OCCn1cccc1CN1CC2(CCN(c3ncnc4sc(CC(F)(F)F)cc34)C2)C1 [Compound 24]	> 15	0.49	9.1	
FC(F)(F)Cc1cc2c(N3CCC4(CN(Cc5ccc[nH]5)C4)C3)ncnc2s1 [Compound 25]	7.2	0.31	3.8	
FC(F)(F)Cc1cc2c(N3CC4(CC(OCc5ccccc5)C4)C3)ncnc2s1 [Compound 26]	> 15	0.16	10.4	
Cn1cc(CN2CC3(C2)CN(c2ncnc4sc(CC(F)(F)F)cc24)C3)cn1 [Compound 28]				IC50 [1, 8]: 3.2 µM and > 15 µM; IC50 [2, 9]: 0.517 µM
FC(F)(F)Cc1cc2c(N3CCC4(CN(Cc5cn[nH]c5)C4)C3)ncnc2s1 [Compound 29]				IC50 ([1]; Homo sapiens, MOLM-14, 192 h, MOLM14 (MLL-AF9), 8 d, absolute IC50 from AUC of confluence, individual measurements (not averaged), read-out: (2) Spheroid assay MOLM14 (IC50 (μM))): 10.8 µM; IC50 [1, 8]: > 15 µM; IC50 [2, 9]: 0.346 µM; IC50 ([4]; MV-4-11 (MLL-AF4), 8 d, absolute IC50 from AUC of confluence, individual measurements (not averaged), read-out: (2) Spheroid assay MV-4-11 (IC50 (μM))): 1.8 µM and > 15 µM and 9.9 µM
Cn1cc(CN2CC3(CCN(c4ncnc5sc(CC(F)(F)F)cc45)C3)C2)cn1 [Compound 30]	> 15	0.53	9.2	
[CH3][Ge]([CH3])([CH3])[CH2]N1CC2(CCN(c3ncnc4sc(CC(F)(F)F)cc34)C2)C1 [Compound 31]		0.087		
Cn1ccc(CN2CC3(C2)CN(c2ncnc4sc(CC(F)(F)F)cc24)C3)n1 [Compound 34]		0.72		
Cn1ccc(CN2CC3(CCN(c4ncnc5sc(CC(F)(F)F)cc45)C3)C2)n1 [Compound 35]		0.99		
CC(C)n1cc(CN2CC3(CCN(c4ncnc5sc(CC(F)(F)F)cc45)C3)C2)cn1 [Compound 36]		0.4		

Continued, in another order:

IC50 [1, 5] [µM]	IC50 [2, 6] [µM]	IC50 [4, 7] [µM]	Compound	further results
3.1	0.17	1.5	NCCCOc1cccc(CN2CC3(CCN(c4ncnc5sc(CC(F)(F)F)cc45)C3)C2)c1 [Compound 37]	
	0.84		FC(F)(F)Cc1cc2c(N3CC4(CN(Cc5cn[nH]c5)C4)C3)ncnc2s1 [Compound 40]	
	0.63		FC(F)(F)Cc1cc2c(N3CC4(CN(Cc5cc[nH]n5)C4)C3)ncnc2s1 [Compound 41]	
6.1	0.12	2	CC(C)NCCNC(=O)C(c1ccccc1)N1CC2(CCN(c3ncnc4sc(CC(F)(F)F)cc34)C2)C1 (stereo not shown) [Compound 74]	
	2.36		O=C(NCCO)C(c1ccccc1)N1CC2(CCN(c3ncnc4sc(CC(F)(F)F)cc34)C2)C1 (stereo not shown) [Compound 75]	
10.5	0.045	1.3	O=C([C@@H]1C[C@@H](F)CN1)N1CC2(C1)CN(c1ncnc3sc(CC(F)(F)F)cc13)C2 [Compound 89]	
> 15	0.11	11.1	O=C([C@@H]1CC(F)(F)CN1)N1CC2(C1)CN(c1ncnc3sc(CC(F)(F)F)cc13)C2 [Compound 90]	
3.4		0.67	C[C@H]1CN[C@H](C(=O)N2CC3(C2)CN(c2ncnc4sc(CC(F)(F)F)cc24)C3)C1 [Compound 105]	IC50 [3]: > 15 µM
> 15	0.12	2.1	Cn1cc2c(n1)CCCC2N1CC2(CCN(c3ncnc4sc(CC(F)(F)F)cc34)C2)C1 (stereo not shown) [Compound 133]	
	1.07		Cn1cc(C(CN)N2CC3(CCN(c4ncnc5sc(CC(F)(F)F)cc45)C3)C2)cn1 (stereo not shown) [Compound 195]	
> 15	0.3	7.3	CC(c1cnn(C)c1)N1CC2(CCN(c3ncnc4sc(CC(F)(F)F)cc34)C2)C1 (stereo not shown) [Compound 197]	
12.4	0.14	5.1	C[C@H](c1cnn(C)c1)N1CC2(CCN(c3ncnc4sc(CC(F)(F)F)cc34)C2)C1 [Compound 198]	
> 15	0.41	12.9	C[C@@H](c1cnn(C)c1)N1CC2(CCN(c3ncnc4sc(CC(F)(F)F)cc34)C2)C1 [Compound 199]	
10.3	0.11	3.4	CC(C)[C@@H](C1CNC1)N1CC2(CCN(c3ncnc4sc(CC(F)(F)F)cc34)C2)C1 [Compound 200]	
